Test results as given in patent US20240279190A1, “COMPOUNDS FOR MODULATING PLATELET-TYPE 12-(S)-LIPOXYGENASE AND METHODS OF USE FOR SAME” (The Regents of The University of California, priority 2021, published 2024).
Residue numbers refer to the chain shown, from its start.

Key:
[1] = target: T1, 12-LOX mutant A417I/V418M (Homo sapiens, UniProt P18054, A417I/V418M); assay: UV-Vis-based IC50 assay, A417I/V418M mutant; assay type: biochemical
T1 construct: 6xHis (N); made in house; pFastBac1 shuttle vector
T1 sequence (P18054 1-663 A417I/V418M): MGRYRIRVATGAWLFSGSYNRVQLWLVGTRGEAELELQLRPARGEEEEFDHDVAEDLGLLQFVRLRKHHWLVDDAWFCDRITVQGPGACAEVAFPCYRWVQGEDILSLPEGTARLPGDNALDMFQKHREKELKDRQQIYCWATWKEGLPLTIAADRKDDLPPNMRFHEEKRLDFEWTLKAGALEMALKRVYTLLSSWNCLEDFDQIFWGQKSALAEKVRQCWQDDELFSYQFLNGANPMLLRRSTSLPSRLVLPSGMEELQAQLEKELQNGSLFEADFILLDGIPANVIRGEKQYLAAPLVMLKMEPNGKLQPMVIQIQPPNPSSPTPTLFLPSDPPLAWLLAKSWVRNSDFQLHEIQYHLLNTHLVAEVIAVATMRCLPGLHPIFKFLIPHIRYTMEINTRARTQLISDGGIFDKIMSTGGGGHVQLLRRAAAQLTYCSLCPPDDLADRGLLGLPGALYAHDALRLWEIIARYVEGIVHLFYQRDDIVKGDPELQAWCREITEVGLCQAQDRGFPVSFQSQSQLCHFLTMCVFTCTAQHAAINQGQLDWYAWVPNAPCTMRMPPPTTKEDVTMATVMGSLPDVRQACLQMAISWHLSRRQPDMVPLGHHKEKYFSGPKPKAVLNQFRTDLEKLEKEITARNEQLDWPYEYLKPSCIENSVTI
Text: (§1) Based on the ML355 binding mode predicted by the modeling, all residues within 5 Å of any atom of ML355 were selected for experimental mutagenesis. The selected residues were replaced with amino acids with either bulkier or smaller side chains in order to determine what specific interactions play a role in inhibitor binding. […] The numbering refers to the UniProt accession number P18054 sequence, with the N-terminal methionine assigned as amino acid number one. The primers for all mutants were designed using the online QuikChange Primer Design tool (http://www.genomics.agilent.com/primerDesignProgram.jsp) from Agilent Technologies (CA, USA). The mutations were introduced by using the QuikChange® II XL site-directed mutagenesis kit from Agilent, following the instructions in the protocol provided. […]
(§2) The wild type 12-LOX (wt-12-LOX) enzyme and its mutants were expressed as fusion proteins, with an N-terminal 6×His tag, and were affinity purified by nickel-iminodiacetic acid agarose using FPLC (Biorad).
(§3) The percent inhibition was determined by comparing the enzyme rates of the control (DMSO solvent) and the inhibitor sample by following the formation of the conjugated diene product at 234 nm (ε=25,000 M^−1cm^−1). […] The substrate concentration was quantitatively determined by allowing the enzymatic reaction to go to completion in the presence of soybean LOX-1. […]

[2] = target: T2, 12-LOX mutant A417I/V418M/S594T (Homo sapiens, UniProt P18054, A417I/S594T/V418M); assay: UV-Vis-based IC50 assay, A417I/V418M/S594T mutant; assay type: biochemical
T2 construct: 6xHis (N); made in house; pFastBac1 shuttle vector
T2 sequence (P18054 1-663 A417I/V418M/S594T): T1 sequence (P18054 1-663 A417I/V418M) with S594T
Text: as §1, §2, §3

COc1cccc(CNc2ccc(S(=O)(=O)Nc3nc4c(ccc5ccccc54)s3)cc2)c1O [Compound LOX-12-001, 4-((2-hydroxy-3-methoxybenzyl)amino)-N-(naphtho[1,2-d]thiazol-2-yl)benzenesulfonamide]
IC50 ([1]; A417I/V418M): 120 ± 40 nM | fold decrease in potency (increase in IC50) compared to wt12-LOX ([1]; A417I/V418M vs wt12-LOX): 2.4 fold | IC50 [2]: > 20000 nM | inhibition at 20 µM ([2]; 20 uM inhibitor, read-out: Percent inhibition at 20 uM inhibitor): 44%
